Measurements taken from patent US11059823B2, “Small molecule inhibitors of the JAK family of kinases” (Janssen Pharmaceutica NV, priority 2016, dated 2021).

Test system: IL-2 pSTAT5 (JAK1/JAK3)
Experiment: IL-2 pSTAT5 (JAK1/JAK3) cellular assay in PBMCs (AlphaLISA)
Type: cell-based
Details: PBMC, IL-2 5 ng/mL
Protocol: For all compounds tested, there was measured inhibition of STAT phosphorylation with all three stimuli.
The AlphaLISA assay (based on Alpha Technology from PerkinElmer) was performed by first plating freshly thawed PBMCs (Biological Specialty Corporation) in 384-well plates at 30,000 cells per 4 μL per well in HBSS (Hanks' Balanced Salt Solution) containing 0.1% IgG (immunoglobulin G)-free, protease-free BSA (bovine serum albumin) (Jackson ImmunoResearch Cat. No. 001-000-161). The cells were then treated with 2 μL/well of compounds diluted in DMSO at half-log titrated concentrations, with a highest test concentration of 10 μM and 0.5% final DMSO concentration, for thirty minutes at 37° C. […] The cellular reactions were terminated by the addition of 2 μL/well of lysis buffer (PerkinElmer Cat. No. ALSU-PST5-A10K) followed by an incubation of five minutes at room temperature. […] Finally, the plates were read on a PerkinElmer EnVision for detection of the time-resolved fluorescence signal. The percentage of IL-2-dependent pSTAT5 inhibition was determined at the compound test concentrations; and for each compound, a dose curve was generated and the IC50 was calculated. Compound IC50 was calculated by nonlinear regression, sigmoidal dose response analysis of the half-log dilution titration curve of the compound concentration vs. Alpha signal. […]

How did the IC50 turn out when `N#CC[C@H]1CC[C@H](n2c(-c3c[nH]cn3)nc3cnc4[nH]ccc4c32)CC1` [Ex. 2, 2-((1r,4r)-4-(2-(1H-Imidazol-4-yl)imidazo[4,5-d]pyrrolo[2,3-b]pyridin-1(6H)-yl)cyclohexyl)acetonitrile] was run?
Its IC50 is 9 nM.
